In ChEMBL document CHEMBL3882729, “Receptor-type kinase modulators and methods of use” (2009):

Columns and labels:
Ephrin type-A receptor 2 = Ephrin type-A receptor 2 (Homo sapiens, UniProt P29317); experiment: Inhibition of recombinant human N-terminal His6-tagged EphA2 (N598 to R890 residues) expressed in baculovirus using poly-EY as substrate after 180 mins by luciferase coupled chemiluminescence assay
Ephrin type-B receptor 4 = biological target: T1, Ephrin type-B receptor 4 (Homo sapiens, UniProt P54760); experiment: Inhibition of recombinant human N-terminal His6-tagged EphB4 kinase domain (E605 to E890 residues) expressed in baculovirus using poly-AEKY as substrate after 150 mins in presence of gamma33P-ATP by liquid scintillation spectrometry
T1 sequence (P54760 whole entry): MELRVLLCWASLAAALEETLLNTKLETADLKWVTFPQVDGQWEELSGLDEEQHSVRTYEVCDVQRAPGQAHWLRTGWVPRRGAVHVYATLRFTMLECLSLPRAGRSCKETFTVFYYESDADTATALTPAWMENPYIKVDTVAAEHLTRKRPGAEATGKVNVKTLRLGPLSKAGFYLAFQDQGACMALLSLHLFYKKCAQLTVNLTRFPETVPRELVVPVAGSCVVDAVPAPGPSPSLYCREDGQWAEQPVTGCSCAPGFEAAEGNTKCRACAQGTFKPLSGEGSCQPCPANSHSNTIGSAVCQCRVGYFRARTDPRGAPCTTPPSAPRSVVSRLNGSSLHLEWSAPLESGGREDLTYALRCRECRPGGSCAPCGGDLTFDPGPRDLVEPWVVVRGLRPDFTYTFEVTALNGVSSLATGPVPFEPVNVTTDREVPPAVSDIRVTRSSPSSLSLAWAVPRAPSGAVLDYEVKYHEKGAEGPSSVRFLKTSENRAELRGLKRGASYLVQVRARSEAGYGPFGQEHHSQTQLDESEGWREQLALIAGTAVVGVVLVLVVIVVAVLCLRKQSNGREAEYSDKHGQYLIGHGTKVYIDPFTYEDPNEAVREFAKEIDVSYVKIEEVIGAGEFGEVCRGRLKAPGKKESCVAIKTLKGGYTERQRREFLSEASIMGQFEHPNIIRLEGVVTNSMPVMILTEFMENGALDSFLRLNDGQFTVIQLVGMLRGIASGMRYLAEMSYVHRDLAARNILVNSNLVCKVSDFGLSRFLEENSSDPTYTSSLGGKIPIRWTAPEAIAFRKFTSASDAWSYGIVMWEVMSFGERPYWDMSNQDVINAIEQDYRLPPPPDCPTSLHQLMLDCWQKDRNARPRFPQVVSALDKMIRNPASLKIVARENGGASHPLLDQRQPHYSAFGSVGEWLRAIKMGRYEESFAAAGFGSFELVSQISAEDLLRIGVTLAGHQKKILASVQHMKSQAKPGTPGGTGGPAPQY

[1] = biological target: Vascular endothelial growth factor receptor 2 (Homo sapiens, UniProt P35968); experiment: Inhibition of recombinant human N-terminal GST-fused KDR (D807 to V1356 residues) expressed in baculovirus infected […] insect Sf9 cells using poly-EY as substrate after 240 mins by luciferase coupled chemiluminescence assay
Chain of Vascular endothelial growth factor receptor 2 (P35968 whole entry, the tested form may be a part): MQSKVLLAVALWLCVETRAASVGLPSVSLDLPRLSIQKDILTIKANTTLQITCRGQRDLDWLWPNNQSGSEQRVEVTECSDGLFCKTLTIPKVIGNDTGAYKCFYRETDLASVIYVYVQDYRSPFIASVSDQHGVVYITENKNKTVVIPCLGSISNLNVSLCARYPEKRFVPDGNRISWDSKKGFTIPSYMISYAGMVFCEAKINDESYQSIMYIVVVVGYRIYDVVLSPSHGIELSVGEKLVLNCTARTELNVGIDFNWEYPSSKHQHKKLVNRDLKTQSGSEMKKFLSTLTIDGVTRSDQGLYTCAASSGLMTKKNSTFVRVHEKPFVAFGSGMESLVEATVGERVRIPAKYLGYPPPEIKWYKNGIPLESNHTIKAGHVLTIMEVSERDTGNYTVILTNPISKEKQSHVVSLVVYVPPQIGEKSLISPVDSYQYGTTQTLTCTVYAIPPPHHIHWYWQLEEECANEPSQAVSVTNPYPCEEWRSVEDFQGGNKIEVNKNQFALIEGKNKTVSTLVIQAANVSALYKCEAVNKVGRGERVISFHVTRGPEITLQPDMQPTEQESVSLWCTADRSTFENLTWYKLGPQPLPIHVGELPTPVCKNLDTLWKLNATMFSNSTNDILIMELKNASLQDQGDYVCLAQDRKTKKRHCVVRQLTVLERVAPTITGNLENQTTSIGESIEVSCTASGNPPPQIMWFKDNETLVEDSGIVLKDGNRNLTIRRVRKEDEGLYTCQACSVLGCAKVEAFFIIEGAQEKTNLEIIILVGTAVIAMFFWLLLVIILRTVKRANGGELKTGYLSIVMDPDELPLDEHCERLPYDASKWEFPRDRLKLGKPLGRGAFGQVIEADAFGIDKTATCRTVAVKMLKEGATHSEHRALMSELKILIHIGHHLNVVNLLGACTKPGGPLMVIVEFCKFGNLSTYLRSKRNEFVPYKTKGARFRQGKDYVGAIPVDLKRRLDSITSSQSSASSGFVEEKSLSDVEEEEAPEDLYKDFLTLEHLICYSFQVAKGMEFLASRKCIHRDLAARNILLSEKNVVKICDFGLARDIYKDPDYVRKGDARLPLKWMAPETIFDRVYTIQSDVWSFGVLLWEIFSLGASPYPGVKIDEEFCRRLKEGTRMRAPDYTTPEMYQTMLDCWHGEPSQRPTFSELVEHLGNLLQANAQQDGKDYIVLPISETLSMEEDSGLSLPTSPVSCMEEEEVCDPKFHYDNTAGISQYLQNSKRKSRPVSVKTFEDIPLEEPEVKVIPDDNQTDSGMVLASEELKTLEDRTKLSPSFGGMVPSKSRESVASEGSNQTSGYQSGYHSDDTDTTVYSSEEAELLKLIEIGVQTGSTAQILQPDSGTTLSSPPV

Chain of Ephrin type-A receptor 2 (P29317 whole entry, the tested form may be a part): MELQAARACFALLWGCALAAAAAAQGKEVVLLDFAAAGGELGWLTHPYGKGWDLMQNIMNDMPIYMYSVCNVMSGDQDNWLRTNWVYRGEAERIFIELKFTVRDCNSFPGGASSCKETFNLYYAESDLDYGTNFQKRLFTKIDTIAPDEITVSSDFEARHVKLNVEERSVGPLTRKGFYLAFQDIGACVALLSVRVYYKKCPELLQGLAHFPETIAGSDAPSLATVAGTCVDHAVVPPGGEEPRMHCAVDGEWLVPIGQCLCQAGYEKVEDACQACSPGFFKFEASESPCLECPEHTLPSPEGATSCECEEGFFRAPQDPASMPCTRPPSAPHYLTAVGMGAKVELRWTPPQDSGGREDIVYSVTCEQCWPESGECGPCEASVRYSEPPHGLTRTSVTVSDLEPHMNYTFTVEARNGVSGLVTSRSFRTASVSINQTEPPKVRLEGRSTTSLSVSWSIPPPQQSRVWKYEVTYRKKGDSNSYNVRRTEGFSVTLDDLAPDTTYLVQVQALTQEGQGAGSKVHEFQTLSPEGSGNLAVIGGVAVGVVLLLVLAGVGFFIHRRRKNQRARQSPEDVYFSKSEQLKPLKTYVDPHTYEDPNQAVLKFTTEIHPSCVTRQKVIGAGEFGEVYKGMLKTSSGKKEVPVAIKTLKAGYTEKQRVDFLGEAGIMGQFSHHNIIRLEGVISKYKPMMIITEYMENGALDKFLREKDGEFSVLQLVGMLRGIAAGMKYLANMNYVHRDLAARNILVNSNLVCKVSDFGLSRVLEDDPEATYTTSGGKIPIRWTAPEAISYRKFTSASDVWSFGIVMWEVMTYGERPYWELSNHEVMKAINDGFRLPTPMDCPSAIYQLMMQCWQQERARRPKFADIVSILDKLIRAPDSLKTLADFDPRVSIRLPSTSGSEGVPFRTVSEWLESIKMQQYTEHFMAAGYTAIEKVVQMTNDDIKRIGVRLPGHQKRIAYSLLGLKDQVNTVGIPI

Row | SMILES | IC50 (Ephrin type-A receptor 2) | IC50 (Ephrin type-B receptor 4) | IC50 [1]
1 | COc1cc2c(Nc3ccc(Cl)c(Cl)c3)ncnc2cc1OCC1CN(C(=O)CCC(C)C)CCO1 (stereo not drawn) | 50 to 1000 nM | 50 to 1000 nM | 50 to 1000 nM
2 | C=CCN1CCOC(COc2cc3ncnc(Nc4ccc(Cl)c(Cl)c4)c3cc2OC)C1 (stereo not drawn) | 50 to 1000 nM | 50 to 1000 nM | 50 to 1000 nM
3 | CCC#CCN1CCOC(COc2cc3ncnc(Nc4ccc(Cl)c(Cl)c4)c3cc2OC)C1 (stereo not drawn) | 50 to 1000 nM | 50 to 1000 nM | 50 to 1000 nM
4 | CC#CCN1CCOC(COc2cc3ncnc(Nc4ccc(Cl)c(Cl)c4)c3cc2OC)C1 (stereo not drawn) | 50 to 1000 nM | 50 to 1000 nM | 50 to 1000 nM
5 | COc1cc2c(Nc3ccc(Cl)c(Cl)c3)ncnc2cc1OCc1nc(CS(=O)(=O)c2ccccn2)no1 | 50 to 1000 nM | 50 to 1000 nM | 50 to 1000 nM
6 | COc1cc2c(Nc3ccc(Cl)c(Cl)c3)ncnc2cc1OC[C@@H]1O[C@@H](OC)[C@@H](O)[C@H](O)[C@H]1O (single isomer, unassigned) | 50 to 1000 nM | < 50 nM | –
7 | COc1cc2c(Nc3ccc(Cl)c(Cl)c3)ncnc2cc1OCC1CN(CCc2ccccc2)CCO1 (stereo not drawn) | 1000 to 20000 nM | 50 to 1000 nM | 50 to 1000 nM
8 | COc1cc2c(Nc3ccc(Cl)c(Cl)c3)ncnc2cc1OCC1CN(CCCCF)CCO1 (stereo not drawn) | 50 to 1000 nM | < 50 nM | < 50 nM
9 | COc1cc2c(Nc3ccc(Cl)c(Cl)c3)ncnc2cc1OCc1cc(F)cc2c1OCOC2 | 1000 to 20000 nM | 1000 to 20000 nM | 1000 to 20000 nM
10 | CCC(C(=O)N1CCOC(COc2cc3ncnc(Nc4ccc(Cl)c(Cl)c4)c3cc2OC)C1)c1ccccc1 (stereo not drawn) | 1000 to 20000 nM | 50 to 1000 nM | 50 to 1000 nM
11 | COc1cc2c(Nc3ccc(Cl)c(Cl)c3)ncnc2cc1OCC1CN(C(=O)c2c(F)ccc(F)c2F)CCO1 (stereo not drawn) | 50 to 1000 nM | 50 to 1000 nM | 50 to 1000 nM
12 | COc1cc2c(Nc3ccc(Cl)c(Cl)c3)ncnc2cc1OCC1CN(CC=C(C)C)CCO1 (stereo not drawn) | 50 to 1000 nM | 50 to 1000 nM | 50 to 1000 nM
13 | COc1cc2c(Nc3ccc(Cl)c(Cl)c3)ncnc2cc1OCC1CN(C(=O)c2ccc(Cl)nc2)CCO1 (stereo not drawn) | 50 to 1000 nM | < 50 nM | 50 to 1000 nM
14 | COc1cc2c(Nc3ccc(Cl)c(Cl)c3)ncnc2cc1OCc1csc(CN(C)C)n1 | – | 50 to 1000 nM | –
15 | COc1cc2c(Nc3ccc(Cl)c(Cl)c3)ncnc2cc1OCC1CN(CC2CC2)CCO1 (stereo not drawn) | < 50 nM | < 50 nM | < 50 nM
16 | COc1ccc(-c2nc(COc3cc4ncnc(Nc5ccc(Cl)c(Cl)c5)c4cc3OC)no2)cc1 | 1000 to 20000 nM | – | –
17 | COc1cc2c(Nc3ccc(N4CCN(C)CC4)c(F)c3)ncnc2cc1O[C@H]1CO[C@H]2[C@@H]1OC[C@@H]2F | – | 1000 to 20000 nM | 1000 to 20000 nM
18 | COc1cc2c(Nc3ccc(Cl)c(Cl)c3)ncnc2cc1OCC1CN(C(C)=O)CCO1 (stereo not drawn) | 50 to 1000 nM | < 50 nM | 50 to 1000 nM
19 | COc1cc2c(Nc3ccc(F)c(Cl)c3)ncnc2cc1OCC1CN(C)CCO1 (stereo not drawn) | 50 to 1000 nM | 50 to 1000 nM | 50 to 1000 nM
20 | COc1cc2c(Nc3ccc(Cl)c(Cl)c3)ncnc2cc1OCC1CN(CCC(C)C)CCCO1 (stereo not drawn) | 50 to 1000 nM | 50 to 1000 nM | 50 to 1000 nM
21 | COc1cc2c(Nc3ccc(Cl)c(Cl)c3)ncnc2cc1OCC1CN(CC2CCCCC2)CCCO1 (stereo not drawn) | 50 to 1000 nM | 50 to 1000 nM | < 50 nM
22 | COc1cc2c(Nc3ccc(Cl)c(Cl)c3)ncnc2cc1OCC1CN(C/C=C/Br)CCO1 (stereo not drawn) | 50 to 1000 nM | 50 to 1000 nM | 50 to 1000 nM
23 | COc1cc2c(Nc3ccc(Cl)c(Cl)c3)ncnc2cc1OCC1CN(S(=O)(=O)c2ccccc2)CCO1 (stereo not drawn) | 1000 to 20000 nM | 50 to 1000 nM | 50 to 1000 nM
24 | COc1cc2c(Nc3ccc(Cl)c(Cl)c3)ncnc2cc1OCC1CN(CC2CCCCO2)CCO1 (stereo not drawn) | – | < 50 nM | < 50 nM
25 | COc1cc2c(Nc3ccc(Cl)c(Cl)c3)ncnc2cc1OCc1csc(CN2CCN(C)CC2)n1 | – | < 50 nM | –

Continued, values first:

Row | IC50 (Ephrin type-A receptor 2) | IC50 (Ephrin type-B receptor 4) | IC50 [1] | SMILES
26 | 50 to 1000 nM | < 50 nM | 50 to 1000 nM | COc1cc2c(Nc3ccc(Cl)c(Cl)c3)ncnc2cc1OCC1CN(C(=O)c2ccoc2)CCO1 (stereo not drawn)
27 | 50 to 1000 nM | < 50 nM | < 50 nM | C=CCCCN1CCOC(COc2cc3ncnc(Nc4ccc(Cl)c(Cl)c4)c3cc2OC)C1 (stereo not drawn)
28 | 50 to 1000 nM | 50 to 1000 nM | 50 to 1000 nM | COc1cc2c(Nc3ccc(Cl)c(Cl)c3)ncnc2cc1OCC1CN(CCF)CCO1 (stereo not drawn)
29 | 50 to 1000 nM | 50 to 1000 nM | 50 to 1000 nM | COc1cc2c(Nc3cccc(Br)c3C)ncnc2cc1OCC1CN(C)CCO1 (stereo not drawn)
30 | 50 to 1000 nM | 50 to 1000 nM | 50 to 1000 nM | COc1cc2c(Nc3cccc(Cl)c3F)ncnc2cc1OCC1CN(C)CCO1 (stereo not drawn)
31 | 50 to 1000 nM | 50 to 1000 nM | 50 to 1000 nM | COc1cc2c(Nc3ccc(Cl)c(Cl)c3)ncnc2cc1OCC1CN(C(=O)C(C)(C)C)CCO1 (stereo not drawn)
32 | 50 to 1000 nM | 50 to 1000 nM | 50 to 1000 nM | COc1cc2c(Nc3ccc(Cl)c(C)c3)ncnc2cc1OCC1CN(C)CCO1 (stereo not drawn)
33 | 50 to 1000 nM | 50 to 1000 nM | 50 to 1000 nM | CC[C@@H](C)CN1CCOC(COc2cc3ncnc(Nc4ccc(Cl)c(Cl)c4)c3cc2OC)C1 (stereo partly drawn)
34 | 1000 to 20000 nM | 50 to 1000 nM | 50 to 1000 nM | COc1cc2c(Nc3ccc(Cl)c(Cl)c3)ncnc2cc1OCC1CN(S(=O)(=O)c2ccc(F)cc2)CCO1 (stereo not drawn)
35 | 50 to 1000 nM | 50 to 1000 nM | 50 to 1000 nM | CCC(CC)CN1CCCOC(COc2cc3ncnc(Nc4ccc(Cl)c(Cl)c4)c3cc2OC)C1 (stereo not drawn)
36 | 50 to 1000 nM | 50 to 1000 nM | 50 to 1000 nM | CCCC(CCC)C(=O)N1CCOC(COc2cc3ncnc(Nc4ccc(Cl)c(Cl)c4)c3cc2OC)C1 (stereo not drawn)
37 | 50 to 1000 nM | < 50 nM | < 50 nM | COc1cc2c(Nc3ccc(Cl)c(Cl)c3)ncnc2cc1OCC1CN(CCCCCCO)CCO1 (stereo not drawn)
38 | 50 to 1000 nM | 50 to 1000 nM | 50 to 1000 nM | COc1cc2c(Nc3ccc(Cl)c(Cl)c3)ncnc2cc1OCC1CN(CCO)CCO1 (stereo not drawn)
39 | 50 to 1000 nM | 50 to 1000 nM | 50 to 1000 nM | COc1cc2c(Nc3ccc(Cl)c(Cl)c3)ncnc2cc1OCC1OCCN(CC(=O)c2ccccc2)C1=O (stereo not drawn)
40 | 50 to 1000 nM | 50 to 1000 nM | 50 to 1000 nM | CCCCCC(=O)N1CCOC(COc2cc3ncnc(Nc4ccc(Cl)c(Cl)c4)c3cc2OC)C1 (stereo not drawn)
41 | – | < 50 nM | – | COc1cc2c(Nc3ccc(Cl)c(Cl)c3)ncnc2cc1OCC1CCCCO1 (stereo not drawn)
42 | 50 to 1000 nM | 50 to 1000 nM | 50 to 1000 nM | CCC(=O)CN1CCOC(COc2cc3ncnc(Nc4ccc(Cl)c(Cl)c4)c3cc2OC)C1 (stereo not drawn)
43 | 50 to 1000 nM | 50 to 1000 nM | < 50 nM | COc1cc2c(Nc3ccc(Br)cc3F)ncnc2cc1OCC1CCN(C(N)=NC#N)CC1
44 | 50 to 1000 nM | < 50 nM | 50 to 1000 nM | COCCNC(=NC#N)N1CCOC(COc2cc3ncnc(Nc4ccc(Cl)c(Cl)c4)c3cc2OC)C1 (stereo not drawn)
45 | 50 to 1000 nM | < 50 nM | 50 to 1000 nM | COCCOc1cc2c(Nc3ccc(Cl)c(Cl)c3)ncnc2cc1OCC1CN(C)CCO1 (stereo not drawn)
46 | – | 50 to 1000 nM | – | COc1cc2c(Nc3ccc(Cl)c(Cl)c3)ncnc2cc1OCc1csc(CN2CCOCC2)n1
47 | 1000 to 20000 nM | 50 to 1000 nM | 1000 to 20000 nM | CCCCCCCCN1CCOC(COc2cc3ncnc(Nc4ccc(Cl)c(Cl)c4)c3cc2OC)C1 (stereo not drawn)
48 | 50 to 1000 nM | < 50 nM | < 50 nM | COc1cc2c(Nc3ccc(Cl)c(Cl)c3)ncnc2cc1OCC1CN(CCCOC2CCCCO2)CCCO1 (stereo not drawn)
49 | 50 to 1000 nM | 50 to 1000 nM | 50 to 1000 nM | COC(=O)CCCCN1CCOC(COc2cc3ncnc(Nc4ccc(Cl)c(Cl)c4)c3cc2OC)C1 (stereo not drawn)
50 | 50 to 1000 nM | 50 to 1000 nM | 50 to 1000 nM | COc1cc2c(Nc3ccc(Br)cc3Cl)ncnc2cc1OCC1CN(C)CCO1 (stereo not drawn)
51 | < 50 nM | < 50 nM | 50 to 1000 nM | COc1cc2c(Nc3cccc(Cl)c3C)ncnc2cc1OCC1CN(C)CCO1 (stereo not drawn)
52 | 1000 to 20000 nM | 50 to 1000 nM | 50 to 1000 nM | CCCCCCCN1CCOC(COc2cc3ncnc(Nc4ccc(Cl)c(Cl)c4)c3cc2OC)C1 (stereo not drawn)
53 | 50 to 1000 nM | 50 to 1000 nM | 50 to 1000 nM | CCCC(C)C(=O)N1CCOC(COc2cc3ncnc(Nc4ccc(Cl)c(Cl)c4)c3cc2OC)C1 (stereo not drawn)
54 | – | < 50 nM | < 50 nM | COCCOc1cc2c(Nc3ccc(Cl)c(Cl)c3)ncnc2cc1OCC1CNCCO1 (stereo not drawn)
